Assay results: article PMC9578143, “Small-Molecule Ebselen Binds to YTHDF Proteins Interfering with the Recognition of N^6-Methyladenosine-Modified RNAs” (ACS Pharmacology & Translational Science, 2022)

What was measured:
[1] = molecular target: T1, YTHDF2-bound mRNAs (PEG10, NOTCH2, CREBBP) in PC-3 cells (Homo sapiens, UniProt Q9Y5A9); experiment: Ribonucleoprotein immunoprecipitation (RIP) followed by qRT-PCR; format: cell-based; conditions: 25 μM, 24 h, versus DMSO
T1 construct: endogenous in cells; host or cells: PC-3
T1 sequence (Q9Y5A9 1-579): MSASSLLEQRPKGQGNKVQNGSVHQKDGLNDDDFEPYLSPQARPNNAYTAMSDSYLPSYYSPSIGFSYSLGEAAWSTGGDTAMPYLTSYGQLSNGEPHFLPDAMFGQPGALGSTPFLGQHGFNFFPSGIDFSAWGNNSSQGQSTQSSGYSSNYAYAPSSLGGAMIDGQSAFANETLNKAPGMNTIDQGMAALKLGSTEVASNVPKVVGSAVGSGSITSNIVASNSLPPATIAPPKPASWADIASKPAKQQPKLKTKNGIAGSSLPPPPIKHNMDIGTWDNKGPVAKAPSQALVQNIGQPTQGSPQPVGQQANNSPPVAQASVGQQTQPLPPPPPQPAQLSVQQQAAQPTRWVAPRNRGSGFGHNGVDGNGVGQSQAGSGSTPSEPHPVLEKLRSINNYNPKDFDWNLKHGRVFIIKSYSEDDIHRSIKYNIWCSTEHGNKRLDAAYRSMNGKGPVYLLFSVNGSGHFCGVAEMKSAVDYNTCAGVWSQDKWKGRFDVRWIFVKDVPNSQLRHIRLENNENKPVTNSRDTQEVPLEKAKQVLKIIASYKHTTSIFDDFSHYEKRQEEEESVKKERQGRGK
Method: Five million cells were used for each RIP experiment followed by qRT-PCR,[65] without cross-linking steps and using 1–15 μg of the YTHDF2 antibody (Proteintech, 24744-1-AP) or the same amount of the rabbit normal IgG isotype (negative control, Cell Signaling, 2729S). Cells were harvested after 24 h of treatment with 25 μM ebselen and DMSO as the control, lysed with 20 mM Tris–HCl at pH 7.5, 100 mM KCl, 5 mM MgCl2, and 0.5% NP-40 for 10 min on ice, and centrifuged at 15,000g for 10 min at 4 °C. Lysates were then incubated with Dynabead A/G (Thermo Fisher, 10001D/10003D) for pre-clearing for 1 h at 4 °C and then with Dynabeads A/G (80/20 ratio) at RT for 1 h with YTHDF2 or rabbit isotype IgG for Ab coating. After the pre-clearing steps and the coating, lysates were split between YTHDF2 and IgG-coated beads, while 1–5% of the lysate was stored as the input and incubated O/N at 4 °C. Finally, samples were washed with NT2 buffer for five times, 5 min each at 4 °C. […] For each condition, the ΔCt value of IgG and YTHDF2 was evaluated in triplicate. Normalization of the values was then carried out following the percent input method, in which values from IgG and YTHDF2 IP were calculated as % input of the adjusted input values. […] YTHDF2 and IgG fractions were calculated as % input by subtracting to the adjusted input values their ΔCt values. […]

[2] = tested on: m6A levels in poly(A) purified mRNA of PC-3 cells; experiment: m6A level by 2D thin-layer chromatography; format: cell-based, human; conditions: 24 h time frame
Method: 100 ng of the poly(A) purified RNA was used as the input. Processed samples were analyzed on glass-backed PEI-cellulose plates (MerckMillipore) as described previously. Plates were exposed to a storage phosphor screen below saturation and processed on a Typhoon NIR laser scanner (Cytiva). Quantification of individual nucleotides was done with ImageJ. The relative amount of m6A was calculated as a percent of the total A (sum of both A and m6A spot intensity).

YTHDF1 YTH domain = molecular target: T2, YTHDF1 YTH domain (Homo sapiens, UniProt Q9BYJ9); experiment: NMR titration (2D 1H-15N HSQC) in reducing conditions; format: binding; conditions: 10 mM β-mercaptoethanol, 100 μM protein
T2 construct: The human YTHDF1 YTH domain (amino acids 365–554, PDB: 4RCJ); host or cells: E. coli BL21(DE3)
T2 sequence (Q9BYJ9 365-554): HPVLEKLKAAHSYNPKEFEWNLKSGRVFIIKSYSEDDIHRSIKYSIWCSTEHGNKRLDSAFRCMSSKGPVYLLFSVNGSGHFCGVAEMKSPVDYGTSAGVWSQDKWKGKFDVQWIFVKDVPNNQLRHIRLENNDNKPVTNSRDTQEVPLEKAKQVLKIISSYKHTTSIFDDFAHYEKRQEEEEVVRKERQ
Method: To further investigate the ligand–protein interaction in reversible conditions, the resonances of the YTHDF1 YTH domain were assigned. The protein sample was titrated with ebselen, in the presence of β-mercaptoethanol (10 mM) as a reducing agent, to prevent the covalent bond formation. The titration was monitored by NMR to map at atomic resolution the ligand-binding site on the protein surface. Increasing amounts of the ligand (12.5, 25, 50, 100, and 200 μM) were added to the protein solution during the NMR titration, and 2D ^1H–^15N heteronuclear single quantum coherence (HSQC) spectra were acquired.
The interaction of the protein with ebselen was investigated by solution NMR. 2D ^1H–^15N HSQC spectra were acquired on a spectrometer operating at 950 MHz and 298 K, on the free protein (100 μM in 20 mM Tris buffer, pH 7.5, 150 mM NaCl, 250 mM LiCl, 10 mM 2-mercaptoethanol, 0.5 mM EDTA, 0.1% NaN3, and protease inhibitors) and after the addition of increasing aliquots of a solution of the ligand in DMSO-d6 to reach the final concentrations of 12.5, 25, 50, 100, and 200 μM.

O=c1c2ccccc2[se]n1-c1ccccc1 [Compound 1, 2-phenyl-1,2-benzisoselenazol-3(2H)-one]
YTHDF2-bound target mRNA levels (RIP, in words) [1]: decrease of the mRNA levels compared to control samples
Overall m6A methylation level (in words) [2]: no significant changes
Affinity constant judged from NMR titration (in words) (YTHDF1 YTH domain): low micromolar range
